# Reference: US6753177B1, “P-glycoproteins and uses thereof” (Becton Dickinson and Company, priority 1999, dated 2004)
# Biological target: T1, dog PGP (Canis lupus familiaris, UniProt C0KKU9)
# T1 construct: expressed in transfected cells; host or cells: LLC-PK1 cells (ATCC), electroporated with the p222CMV episomal vector and selected with hygromycin B
# Experiment: Polarization of vinblastine transport across dog PGP transfected LLC-PK1 cell monolayers in Transwells
# Assay type: cell-based
# Settings: PGP transfected cells, compared with control cells; vinblastine (0.1 uM) transport in Transwells
# Description: Dog PGP cDNA (SEQ ID NO:1) is introduced into a clonal population of LLC-PK1 cells in a vector that confers resistance to hygromycin B. LLC-PK1 cells are obtained from the American Type Culture Collections and are propagated in Medium 199 supplemented to 7% with fetal bovine serum. LLC-PK1 cells are recloned prior to transfection in order to assure homogeneity of the cell population. Briefly, dog PGP cDNA is incorporated into the p222CMV vector. […] The PGP cDNA is under the control of the cytomegalovirus (CMV) immediate early promoter. The vector confers resistance to hygromycin B. Cells (in 0.4 mL) and DNA (10 to 20 μg) were transfected by electroporation using a BTX Electro cell manipulator model 600 using a 2 mm gap cell, 100V, 2500 μF capacitance and 72 ohm resistance. […] Expression of PGP is measured by the polarization of vinblastine (0.1 uM) transport in Transwells™.
# LLC-PK1 cell based transport studies are conducted in 24 well Transwells™ (Corning Costar, Catalog number 3415). […] Transport is measured under sink conditions in both the apical to basolateral (A to B) and basolateral to apical (B to A) directions. […] Quantitation of the amount of compound transported is by liquid scintillation counting (vinblastine) or HPLC with UV or mass spectrometric detection.
# Functional expression of dog PGP is measured by the polarization of transport of vinblastine.
# T1 sequence (C0KKU9 1-1281): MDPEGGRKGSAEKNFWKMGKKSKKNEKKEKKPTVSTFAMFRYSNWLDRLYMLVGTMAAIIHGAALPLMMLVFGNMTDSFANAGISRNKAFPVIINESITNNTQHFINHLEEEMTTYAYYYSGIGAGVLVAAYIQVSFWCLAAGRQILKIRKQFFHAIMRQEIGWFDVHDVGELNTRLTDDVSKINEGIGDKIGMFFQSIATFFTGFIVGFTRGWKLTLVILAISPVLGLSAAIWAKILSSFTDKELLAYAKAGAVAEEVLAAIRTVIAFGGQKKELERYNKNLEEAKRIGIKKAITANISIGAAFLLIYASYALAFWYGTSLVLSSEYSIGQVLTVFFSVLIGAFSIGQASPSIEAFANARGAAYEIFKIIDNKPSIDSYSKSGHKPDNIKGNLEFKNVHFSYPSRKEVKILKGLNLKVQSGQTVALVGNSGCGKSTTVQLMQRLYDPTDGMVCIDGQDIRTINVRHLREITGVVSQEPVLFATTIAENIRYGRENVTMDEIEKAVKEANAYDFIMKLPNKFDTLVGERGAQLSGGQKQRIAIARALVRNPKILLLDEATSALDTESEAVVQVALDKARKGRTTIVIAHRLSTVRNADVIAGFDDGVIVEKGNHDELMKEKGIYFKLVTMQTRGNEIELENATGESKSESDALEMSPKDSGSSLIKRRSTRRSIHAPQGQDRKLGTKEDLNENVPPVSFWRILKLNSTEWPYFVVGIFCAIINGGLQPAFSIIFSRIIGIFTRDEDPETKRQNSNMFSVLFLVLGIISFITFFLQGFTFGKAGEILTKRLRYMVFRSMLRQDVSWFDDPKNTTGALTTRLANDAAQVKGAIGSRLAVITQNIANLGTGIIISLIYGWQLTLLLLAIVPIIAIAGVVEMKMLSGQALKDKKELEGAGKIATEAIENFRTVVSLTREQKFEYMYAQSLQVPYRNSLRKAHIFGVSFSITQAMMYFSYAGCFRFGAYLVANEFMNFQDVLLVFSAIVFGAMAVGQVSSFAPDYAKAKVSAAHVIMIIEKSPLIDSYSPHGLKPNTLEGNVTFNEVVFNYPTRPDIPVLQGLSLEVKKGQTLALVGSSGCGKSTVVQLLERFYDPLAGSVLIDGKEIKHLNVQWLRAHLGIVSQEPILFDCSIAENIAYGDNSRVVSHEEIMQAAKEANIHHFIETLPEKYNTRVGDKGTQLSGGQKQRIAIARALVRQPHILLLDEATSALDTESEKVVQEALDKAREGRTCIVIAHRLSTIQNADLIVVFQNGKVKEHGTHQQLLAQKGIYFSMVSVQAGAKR
compound,measurement,value
CC[C@]1(O)C[C@@H]2CN(CCc3c([nH]c4ccccc34)[C@@](C(=O)OC)(c3cc4c(cc3OC)N(C)[C@H]3[C@@](O)(C(=O)OC)[C@H](OC(C)=O)[C@]5(CC)C=CCN6CC[C@]43[C@@H]65)C2)C1 [vinblastine],B to A/A to B ratio,much higher ratio
